From patent US8802597B2, “Herbicidal pyrimidines” (E I du Pont de Nemours and Company, priority 2003, dated 2014)

What was measured:
Type in all cases: in vivo
[1] = system: blackgrass (Alopecurus myosuroides); assay: Test B postemergence; conditions: scale 0 to 100 (0 no effect, 100 complete control)
In short: (§1)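 Greenhouse whole-plant test; surfactant-containing non-phytotoxic solvent formulation; pre- and postemergence applications made simultaneously; post plants 2–18 cm, 1- to 4-leaf; visual scoring at 13–15 days on 0–100 scale relative to controls.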

wild oat (Avena fatua) = assay: Test B postemergence; conditions: scale 0 to 100 (0 no effect, 100 complete control)
In short: as §1

[2] = system: crabgrass (Digitaria sanguinalis); assay: Test B pre/postemergence; conditions: for Crabgrass plant response rating: Postemergence; for Plant response rating, Crabgrass: Preemergence
In short: as §1

[3] = system: giant foxtail (Setaria faberii); assay: Test B pre/postemergence; conditions: for Foxtail, Giant plant response rating: Postemergence; for Plant response rating, Foxtail, Giant: Preemergence
In short: as §1

[4] = system: barnyardgrass (Echinochloa crus-galli); assay: Test B pre/postemergence; conditions: for Barnyardgrass plant response rating: Postemergence, scale 0 to 100 (0 no effect, 100 complete control)
In short: as §1

[5] = system: morningglory (Ipomoea coccinea); assay: Test B pre/postemergence; conditions: for Morningglory plant response rating: Postemergence; for Plant response rating, Morningglory: Preemergence
In short: as §1

[6] = system: cocklebur (Xanthium strumarium); assay: Test B pre/postemergence; conditions: for Cocklebur plant response rating: Postemergence; for Plant response rating, Cocklebur: Preemergence
In short: as §1

[7] = system: velvetleaf (Abutilon theophrasti); assay: Test B pre/postemergence; conditions: for Velvetleaf plant response rating: Postemergence; for Plant response rating, Velvetleaf: Preemergence
In short: as §1

[8] = system: wheat (Triticum aestivum); assay: Test B pre/postemergence; conditions: for Wheat plant response rating: Postemergence; for Plant response rating, Wheat: Preemergence
In short: as §1

[9] = system: pigweed (Amaranthus retroflexus); assay: Test B pre/postemergence; conditions: for Pigweed plant response rating: Postemergence; for Plant response rating, Pigweed: Preemergence
In short: as §1

corn (Zea mays) = assay: Test B pre/postemergence; conditions: for Corn plant response rating: Postemergence; for Plant response rating, Corn: Preemergence
In short: as §1

[10] = system: Surinam grass (Brachiaria decumbens); assay: Test B pre/postemergence; conditions: for Surinam Grass plant response rating: Postemergence; for Plant response rating, Surinam Grass: Preemergence
In short: as §1

[11] = system: lambsquarters (Chenopodium album); assay: Test B pre/postemergence; conditions: for Lambsquarters plant response rating: Postemergence; for Plant response rating, Lambsquarters: Preemergence
In short: as §1

rice (Oryza sativa) = assay: Test B flooded paddy test; conditions: Flood, scale 0 to 100
In short: (§2)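 Rice, umbrella sedge, duck salad and barnyardgrass grown to 2-leaf stage under flooded paddy conditions and treated with formulated test chemicals. Kept in greenhouse 13–15 days, then visually rated against untreated controls on a 0–100 scale (0 no effect, 100 complete control).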

[12] = system: barnyardgrass (Echinochloa crus-galli); assay: Test B flooded paddy test; conditions: Flood, scale 0 to 100
In short: as §2

[13] = system: duck salad (Heteranthera limosa); assay: Test B flooded paddy test; conditions: Flood, scale 0 to 100
In short: as §2

[14] = system: umbrella sedge (Cyperus difformis); assay: Test B flooded paddy test; conditions: Flood, scale 0 to 100
In short: as §2

[15] = 62 g ai/ha, scale 0 to 100 (0 no effect, 100 complete control)
[16] = 125 g ai/ha, scale 0 to 100 (0 no effect, 100 complete control)
[17] = 62 g ai/ha, scale 0 to 100, 0 no effect, 100 complete control

With `Nc1nc(-c2ccc(Br)cc2)nc(C(=O)O)c1Br` [Compound 136] the “Blackgrass plant response rating” value ([1]; 62 g ai/ha) was 70, the “Blackgrass plant response rating” value ([1]; 125 g ai/ha) was 70 and the “Oat, Wild plant response rating” value (wild oat (Avena fatua); 62 g ai/ha) was 20. For the same molecule, the “Oat, Wild plant response rating” value (wild oat (Avena fatua); 125 g ai/ha) was 50, the “Crabgrass plant response rating” value [2, 15] was 70 and the “Crabgrass plant response rating” value [2, 16] was 80. For the same molecule, the “Plant response rating, Crabgrass” value [2, 17] was 70, the “Plant response rating, Crabgrass” value [2, 16] was 80 and the “Foxtail, Giant plant response rating” value [3, 15] was 60. For the same molecule, the “Foxtail, Giant plant response rating” value [3, 16] was 70, the “Plant response rating, Foxtail, Giant” value [3, 17] was 10 and the “Plant response rating, Foxtail, Giant” value [3, 16] was 50. The “Barnyardgrass plant response rating” value ([4]; 62 g ai/ha) was 70, the “Barnyardgrass plant response rating” value ([4]; 125 g ai/ha) was 90 and the “Plant response rating, Barnyardgrass” value ([4]; Preemergence, 62 g ai/ha, scale 0 to 100, 0 no effect, 100 complete control) was 30. The “Morningglory plant response rating” value [5, 15] was 40, the “Morningglory plant response rating” value [5, 16] was 100 and the “Plant response rating, Morningglory” value [5, 17] was 10. The “Plant response rating, Morningglory” value [5, 16] was 40, the “Cocklebur plant response rating” value [6, 15] was 90 and the “Cocklebur plant response rating” value [6, 16] was 100. For the same molecule, the “Plant response rating, Cocklebur” value [6, 17] was 40, the “Plant response rating, Cocklebur” value [6, 16] was 70 and the “Velvetleaf plant response rating” value [7, 15] was 80. The “Velvetleaf plant response rating” value [7, 16] was 90, the “Plant response rating, Velvetleaf” value [7, 17] was 60 and the “Plant response rating, Velvetleaf” value [7, 16] was 80. For the same molecule, the “Wheat plant response rating” value [8, 15] was 20, the “Wheat plant response rating” value [8, 16] was 60 and the “Plant response rating, Wheat” value [8, 17] was 50. The “Plant response rating, Wheat” value [8, 16] was 70, the “Pigweed plant response rating” value [9, 15] was 90 and the “Pigweed plant response rating” value [9, 16] was 100. For the same molecule, the “Plant response rating, Pigweed” value [9, 17] was 80, the “Plant response rating, Pigweed” value [9, 16] was 100 and the “Corn plant response rating” value (corn (Zea mays); [15]) was 40. For the same molecule, the “Corn plant response rating” value (corn (Zea mays); [16]) was 70, the “Plant response rating, Corn” value (corn (Zea mays); [17]) was 0 and the “Plant response rating, Corn” value (corn (Zea mays); [16]) was 0. The “Surinam Grass plant response rating” value [10, 15] was 70, the “Surinam Grass plant response rating” value [10, 16] was 80 and the “Plant response rating, Surinam Grass” value [10, 17] was 10. For the same molecule, the “Plant response rating, Surinam Grass” value [10, 16] was 50, the “Lambsquarters plant response rating” value [11, 15] was 100 and the “Lambsquarters plant response rating” value [11, 16] was 100. The “Plant response rating, Lambsquarters” value [11, 17] was 90, the “Plant response rating, Lambsquarters” value [11, 16] was 100 and the “Plant response rating, Rice” value (rice (Oryza sativa); 125 g ai/ha) was 0. The “Plant response rating, Rice” value (rice (Oryza sativa); 500 g ai/ha) was 40, the “Plant response rating, Barnyardgrass” value ([12]; 125 g ai/ha) was 0 and the “Plant response rating, Barnyardgrass” value ([12]; 500 g ai/ha) was 20. For the same molecule, the “Plant response rating, Ducksalad” value ([13]; 125 g ai/ha) was 90, the “Plant response rating, Ducksalad” value ([13]; 500 g ai/ha) was 90 and the “Plant response rating, Sedge, Umbrella” value ([14]; 125 g ai/ha) was 90. The “Plant response rating, Sedge, Umbrella” value ([14]; 500 g ai/ha) was 90.
